The values below come from patent US20220227761A1, “OXOACRIDINYL ACETIC ACID DERIVATIVES AND METHODS OF USE” (STINGTHERA, INC., priority 2019, published 2022).

One experiment addresses hSTING-R232 (aa140-379) (Homo sapiens, UniProt Q86WV6, H232R). The experiment is described as follows: STING differential scanning fluorimetry (DSF) assay, hSTING WT. The conditions noted are these: shift in melting temperature apo vs ligand-bound. On the technique in general: DSF heats the sample and reads unfolding from a dye or from intrinsic fluorescence.
Experiment [1] has as its system STING protein; IRF/IFN signaling in THP-1 R232 cells. Nature of the experiment: Cell based reporter assay, THP-1 R232 IRF-luc. Particulars: Homo sapiens, THP1-dual-KI R232 cells, IRF luciferase reporter; for Emax: maximum measured activity, read-out: THP 1-dual-KI R232_IRF(Luciferase)_Activity Maximum measured (%); for IC50: read-out: THP 1-dual-KI R232_IRF(Luciferase) IC50. The text has this:
Cell reporter assays were developed to measure the ability of compounds of the application to activate the STING protein and activate both IRF/IFN and the NFkB signaling pathways in the myeloid derived cell line THP-1, which is commercially available from several suppliers. Briefly, THP-1 monocytes were transfected and selected for stable integration of 2 reporter constructs. Clones incorporating stably integrated vectors were further selected by antibiotic resistance to blastocidin and zeocin. The reporter constructs included: (1) firefly luciferase reporter gene under the control of an ISG54 promoter fused to five interferon (IFN)-stimulated response elements to measure IRF transcription factor binding activity and (2) secreted embryonic alkaline phosphatase reporter gene under transcription control of an IFN-beta minimal promoter fused to 5 copies of the NFkB consensus transcriptional response element and 3 copies of the c-Rel binding site.
The resulting THP-1 cell line was further modified to incorporate 3 amino acid point mutations (H71R A230G Q293R). This modification of the native TMEM173 gene in THP-1 cells (HAQ) was designed to produce a cell reporter that expressed the most common allelic variant in the human population (THP-1 R232, available from InvivoGen). Alternatively, the TMEM173 gene was knocked out to provide a congenic control to counter-screen for compound activation that was independent of the STING protein (THP-1 STING KO).
Once cell lines were established, reporter assay protocols were developed and optimized to screen small molecule compounds for agonist activity. Assay optimization for efficacy and Z′ value included titration of the following parameters:
• 1. Cell pre-activation with PMA • 2. Cell seeding density • 3. DMSO tolerance • 4. Media selection • 5. FBS concentration • 6. Incubation time • 7. Co-Assessment of cell viability by CTG assay • 8. Appropriate HPE and ZPE controls • 9. Dose Response Titration
• 1. No pre-activation with PMA • 2. 5×10^4 cells/well in 96 well plate format • 3. <0.5% DMSO • 4. RPMI 1640+2.5 mg/ml glucose • 5. 10% FBS • 6. 14-18 hr incubation • 7. Cell Titer Glo reagent (Promega) following supernatant removal • 8. […] 8 point, 2 fold, duplicate starting at 150 μM

Experiment [2] addresses human STING protein (140-379), WT (Homo sapiens, UniProt Q86WV6, H232R). The experiment is described as follows: Radiometric filtration binding competition assay (FBA), hSTING-WT. Particulars: WT-hSWAT IC50 (μM), WT_FBA_HIS-SUMO-hSWAT; wild-type human STING; competition with [H3] 2′3′cGAMP.

Sequence of human STING protein (140-379), WT (Q86WV6 140-379 H232R): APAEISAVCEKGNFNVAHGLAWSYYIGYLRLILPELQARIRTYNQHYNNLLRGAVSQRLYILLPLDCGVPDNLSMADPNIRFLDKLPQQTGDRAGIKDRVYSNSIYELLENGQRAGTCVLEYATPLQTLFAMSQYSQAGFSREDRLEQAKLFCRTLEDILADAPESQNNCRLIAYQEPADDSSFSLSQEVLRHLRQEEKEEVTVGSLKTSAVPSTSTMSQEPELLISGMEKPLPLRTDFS
Sequence of hSTING-R232 (aa140-379) (Q86WV6 140-379 H232R): as above
Protocol for hSTING-R232 (aa140-379): A STING DSF assay was performed to determine protein thermostability shift in response to small molecule ligand binding. A STING thermnostability shift assay based on differential scanning fluorimetry was used to measure (1) the net shift in melting temperature (ΔTm) between the apo and ligand-bound states of the STING protein and (2) the concentration of the thermal denaturation transition (EC50) as a surrogate measure of binding affinity (Kd). […] Protein in assay buffer was transferred to a 384 well plate and incubated with the hydrophobic fluorescent dye SYBR Orange. A temperature ramp was applied to the plate and the resulting dye fluorescence was plotted as a function of temperature. The first derivative of this function (dF/dT) was then used to extrapolate the melting temperature of the protein at various concentrations of compound and determine the thermal denaturation profile of a protein/compound complex.
5 μM purified Target STING Protein • 3. 8 μM Sypro Orange Dye • 4. Buffer: 100 mM NaCl, 30 mM HEPES, pH 7.5 • 5. Thermal Ramp: 0.5° C./min • 6. <1% DMSO • 7. 11 point, 2 fold dilution, duplicate, 300 μM high concentrations • 8.

The IC50 is the concentration that inhibits the measured activity by half. `COc1cc2c(=O)c3ccc(Cl)c(N(C)C)c3n(CC(=O)O)c2cc1OC` [Compound 1]: on hSTING-R232 (aa140-379), the “WT_DSF_hSWAT Tm Shift (° C.)” value is given as “B (“B” = 0-2° C.)”. Moreover, the Emax in experiment [1] lay in the range of 5 to 25%. Further, the IC50 in experiment [1] is greater than 150 µM; in experiment [2], less than 20 µM.
For `COc1ccc2c(=O)c3ccc(Cl)c(N(C)C)c3n(CC(=O)O)c2c1` [Compound 2] the same measures were “D (“D” >7° C.)”, greater than 50%, less than 50 µM and 20 to 100 µM.
As to `CN(C)c1c(Cl)ccc2c(=O)c3cc(Cl)c(Br)cc3n(CC(=O)O)c12` [Compound 3], the “WT_DSF_hSWAT Tm Shift (° C.)” value on hSTING-R232 (aa140-379) is reported as “C (“C” = 2-7° C.)”. The Emax in experiment [1] is greater than 50%. In addition, the half-maximal inhibitory concentration (IC50) in experiment [1] is less than 50 µM; in experiment [2] it was 20 to 100 µM.
As for `Cc1cccn1-c1ccc2c(=O)c3ccc(Cl)c(N(C)C)c3n(CC(=O)O)c2c1` [Compound 4], the “WT_DSF_hSWAT Tm Shift (° C.)” value at hSTING-R232 (aa140-379) was “D (“D” >7° C.)”. Also, in experiment [1], the Emax is greater than 50% and the concentration for half-maximal inhibition (IC50) was less than 50 µM. Also, the IC50 in experiment [2] is less than 20 µM.
For `CN(C)c1c(Cl)ccc2c(=O)c3ccc(-n4ccnc4)cc3n(CC(=O)O)c12` [Compound 5] the same measures were “C (“C” = 2-7° C.)”, greater than 50%, less than 50 µM and 20 to 100 µM.
For the compound `CN(C)c1c(Cl)ccc2c(=O)c3ccc(-n4cccn4)cc3n(CC(=O)O)c12` [Compound 6], the “WT_DSF_hSWAT Tm Shift (° C.)” value on hSTING-R232 (aa140-379) is given as “D (“D” >7° C.)”. Besides, the Emax in experiment [1] is greater than 50%. The IC50 is less than 50 µM in experiment [1] and less than 20 µM in experiment [2].
For `CN(C)c1c(Cl)ccc2c(=O)c3ccc(-n4cccc4)cc3n(CC(=O)O)c12` [Compound 7] the same measures were “D (“D” >7° C.)”, greater than 50%, less than 50 µM and less than 20 µM.
Taken in the same sequence, the figures for `CN(C)c1c(Cl)ccc2c(=O)c3ccc(-c4ccncc4)cc3n(CC(=O)O)c12` [Compound 8] were “D (“D” >7° C.)”, greater than 50%, less than 50 µM and less than 20 µM.
For `CN(C)c1c(Cl)ccc2c(=O)c3ccc(-c4cccnc4)cc3n(CC(=O)O)c12` [Compound 9] the same measures were “C (“C” = 2-7° C.)”, greater than 50%, less than 50 µM and less than 20 µM.
Consider `CN(C)c1c(Cl)ccc2c(=O)c3ccc(-c4ccccn4)cc3n(CC(=O)O)c12` [Compound 10], for which, at hSTING-R232 (aa140-379), the “WT_DSF_hSWAT Tm Shift (° C.)” value was “D (“D” >7° C.)”. Further, the Emax in experiment [1] was greater than 50%. The 50% inhibitory concentration (IC50) is less than 50 µM in experiment [1] and less than 20 µM in experiment [2].
Taken in the same sequence, the figures for `CN(C)c1c(Cl)ccc2c(=O)c3ccc(-c4ccccc4)cc3n(CC(=O)O)c12` [Compound 11] were “D (“D” >7° C.)”, greater than 50%, less than 50 µM and less than 20 µM.
As to `Cc1noc(C)c1-c1ccc2c(=O)c3ccc(Cl)c(N(C)C)c3n(CC(=O)O)c2c1` [Compound 12], on hSTING-R232 (aa140-379), the “WT_DSF_hSWAT Tm Shift (° C.)” value is given as “C (“C” = 2-7° C.)”. The compound also gave an IC50 in experiment [2] of 20 to 100 µM.
On to `CN(C)c1c(Cl)ccc2c(=O)c3ccc(-c4cnoc4)cc3n(CC(=O)O)c12` [Compound 13], for which the “WT_DSF_hSWAT Tm Shift (° C.)” value on hSTING-R232 (aa140-379) is given as “D (“D” >7° C.)”. In experiment [1], the Emax was greater than 50% and the 50% inhibitory concentration (IC50) is less than 50 µM.
Turning to `CN(C)c1c(Cl)ccc2c(=O)c3ccc(-c4cc[nH]c4)cc3n(CC(=O)O)c12` [Compound 14], the “WT_DSF_hSWAT Tm Shift (° C.)” value at hSTING-R232 (aa140-379) is “D (“D” >7° C.)”. For the same compound, the Emax in experiment [1] was greater than 50%. In addition, the values for the half-inhibitory concentration (IC50) in experiment [1] and in experiment [2] were less than 50 µM and less than 20 µM, respectively.
Taken in the same sequence, the figures for `CN(C)c1c(Cl)ccc2c(=O)c3ccc(C4=CCN(C(=O)OC(C)(C)C)CC4)cc3n(CC(=O)O)c12` [Compound 15] were “D (“D” >7° C.)”, greater than 50%, less than 50 µM and less than 20 µM.
For the compound `CN(C)c1c(Cl)ccc2c(=O)c3ccc(C4=CCOC4)cc3n(CC(=O)O)c12` [Compound 16], the “WT_DSF_hSWAT Tm Shift (° C.)” value on hSTING-R232 (aa140-379) is reported as “D (“D” >7° C.)”. Also, the Emax in experiment [1] was greater than 50%. In addition, the concentration for half-maximal inhibition (IC50) in experiment [1] was less than 50 µM; in experiment [2], less than 20 µM.
Taken in the same sequence, the figures for `CN(C)c1c(Cl)ccc2c(=O)c3ccc(-c4ccn(C(=O)OC(C)(C)C)c4)cc3n(CC(=O)O)c12` [Compound 17] were “D (“D” >7° C.)”, greater than 50%, less than 50 µM and less than 20 µM.
On to `Cc1ccc2c(=O)c3ccc(C(F)(F)F)c(N(C)C)c3n(CC(=O)O)c2c1` [Compound 26], for which, at hSTING-R232 (aa140-379), the “WT_DSF_hSWAT Tm Shift (° C.)” value is recorded as “B (“B” = 0-2° C.)”. The compound also gave a half-inhibitory concentration (IC50) in experiment [2] greater than 300 µM.
For `COc1c(Cl)ccc2c(=O)c3ccc(C4CCC(N5CCN(C)CC5)CC4)cc3n(CC(=O)O)c12` (stereo not drawn) [Compound 27] the same measures were “C (“C” = 2-7° C.)” and 20 to 100 µM.
Taken in the same sequence, the figures for `COc1c(Cl)ccc2c(=O)c3ccc(C4=CCC(N5CCN(C)CC5)CC4)cc3n(CC(=O)O)c12` (stereo not drawn) [Compound 28] were “C (“C” = 2-7° C.)” and 20 to 100 µM.
On to `Cc1cc2c(cc1Cl)c(=O)c1ccc(Cl)c(N(C)C)c1n2CC(=O)O` [Compound 33], for which the “WT_DSF_hSWAT Tm Shift (° C.)” value on hSTING-R232 (aa140-379) is given as “C (“C” = 2-7° C.)”. Also, in experiment [1], the Emax is greater than 50% and the half-inhibitory concentration (IC50) is less than 50 µM.
`CCc1cccc2c(=O)c3ccc(C)cc3n(CC(=O)O)c12` [Compound 38]: the “WT_DSF_hSWAT Tm Shift (° C.)” value at hSTING-R232 (aa140-379) is given as “B (“B” = 0-2° C.)”. In addition, in experiment [2], the half-inhibitory concentration (IC50) is greater than 300 µM.
On to `COc1c(Cl)ccc2c(=O)c3ccc(C4=CCNC4)cc3n(CC(=O)O)c12` [Compound 40], for which the “WT_DSF_hSWAT Tm Shift (° C.)” value on hSTING-R232 (aa140-379) is listed as “C (“C” = 2-7° C.)”. This compound displayed an IC50 in experiment [2] greater than 300 µM.
Taken in the same sequence, the figures for `COc1c(Cl)ccc2c(=O)c3ccc(C4=CCN(C(=O)OC(C)(C)C)C4)cc3n(CC(=O)O)c12` [Compound 41] were “D (“D” >7° C.)” and 20 to 100 µM.
Taken in the same sequence, the figures for `CN(C)c1c(Cl)ccc2c(=O)c3ccc(C(C)(C)C)cc3n(CC(=O)NS(=O)(=O)C3CC3)c12` [Compound 42] were “D (“D” >7° C.)” and less than 20 µM.
Taken in the same sequence, the figures for `CN(C)c1c(Cl)ccc2c(=O)c3ccc(C(C)(C)C)cc3n(CC(=O)NC#N)c12` [Compound 43] were “D (“D” >7° C.)” and less than 20 µM.
Consider `Cc1ccc2c(=O)c3ccc(Cl)c(N(C)C)c3n(CC(=O)NS(=O)(=O)C3CC3)c2c1` [Compound 44], for which, on hSTING-R232 (aa140-379), the “WT_DSF_hSWAT Tm Shift (° C.)” value is listed as “D (“D” >7° C.)”. The compound also showed an IC50 in experiment [2] of 20 to 100 µM.
Consider `Cc1ccc2c(=O)c3ccc(Cl)c(N(C)C)c3n(CC(=O)NC#N)c2c1` [Compound 45], for which the “WT_DSF_hSWAT Tm Shift (° C.)” value at hSTING-R232 (aa140-379) was “C (“C” = 2-7° C.)”. Moreover, the 50% inhibitory concentration (IC50) in experiment [2] fell in the range of 20 to 100 µM.
Turning to `CCc1c(Cl)ccc2c(=O)c3ccc(C)cc3n(CC(=O)O)c12` [Compound 48], the “WT_DSF_hSWAT Tm Shift (° C.)” value at hSTING-R232 (aa140-379) is reported as “D (“D” >7° C.)”. In experiment [2], this compound gave a concentration for half-maximal inhibition (IC50) of 20 to 100 µM.
Taken in the same sequence, the figures for `C=Cc1c(Cl)ccc2c(=O)c3ccc(C)cc3n(CC(=O)O)c12` [Compound 49] were “D (“D” >7° C.)” and 20 to 100 µM.
Taken in the same sequence, the figures for `CN(C)c1c(Cl)ccc2c(=O)c3ccc(-c4ccco4)cc3n(CC(=O)O)c12` [Compound 50] were “D (“D” >7° C.)” and 20 to 100 µM.
For `COc1c(Cl)ccc2c(=O)c3ccc(Br)cc3n(CC(=O)O)c12` [Compound 66] the same measures were “C (“C” = 2-7° C.)” and 100 to 300 µM.
As for `CN(C)c1c(Cl)ccc2c(=O)c3ccc(C4(C)CC4)cc3n(CC(=O)O)c12` [Compound 85], in experiment [1], the Emax is greater than 50% and the concentration for half-maximal inhibition (IC50) was less than 50 µM. In experiment [2], this compound registered a half-maximal inhibitory concentration (IC50) of less than 20 µM.
For `CCc1cc2c(cc1Cl)c(=O)c1ccc(Cl)c(N(C)C)c1n2CC(=O)O` [Compound 93], the “WT_DSF_hSWAT Tm Shift (° C.)” value on hSTING-R232 (aa140-379) is recorded as “C (“C” = 2-7° C.)”. For the same compound, in experiment [1], the Emax was greater than 50% and the IC50 is less than 50 µM.
